Assay results published in patent US9624161B2 (priority 2009, dated 2017).

Tested on: men with advanced prostate cancer
Assay: Study 2: Phase 2 trial in men with advanced prostate cancer, Compound IV 1000 or 2000 mg daily versus leuprolide depot
Assay type: in vivo, human
Settings: for Castrated (%) at Day 28 / Castrated (%) on both Day 28 and Day 60 / No. Castrated at Day 28 / No. Castrated on both Day 28 and Day 60: ITT; for Subjects that achieved castration (total T<50 ng/dL) by Day 60: subjects that reached Day 60; for % Reduction on PSA at Day 28 / Mean Free T at Day 28 / Mean Total T at Day 28: subjects castrated on both day 28 and day 60; for Castration (%): patients receiving >14 days; for Median free testosterone: Day 120; for Median increase in SHBG: Day 90
Method: This was a prospective, randomized 1:1:1, Phase 2 open-label, multicenter, trial comprised of men with advanced prostate cancer (n=159) initiating ADT with either oral daily doses of 1000 mg Compound IV, oral daily doses of 2000 mg Compound IV, or leuprolide depot (Lupron Depot® 4 month). It was conducted according to the Declaration of Helsinki, approved by appropriate research ethics committees, and each patient provided signed informed consent prior to registration and randomization. Patient demographlics are outlined in Table 24.
The trial required each subject to remain on the study for at least 60 days. […] Subjects that achieved castration by day 60 continued for up to 360 days to assess the safety of Compound IV over this dosing duration and to assess the maintenance of total testosterone levels ≦50 ng/dL.
The major inclusion criteria for the trial were: Males between 45-80 years of age; ECOG ≦2; screening serum total testosterone ≧150 ng/dL; no prior ADT (medical or surgical) unless the subject had been treated with LHRH agent for ≦6 months duration and that treatment was ≧1 years prior to screening.
The primary endpoint of the clinical trial was the proportion of patients that achieve ≦50 ng/dL total testosterone by Day 60. Secondary efficacy endpoints evaluated included serum concentrations of free testosterone, PSA, SHBG, safety and tolerability of Compound IV, incidence and frequency of hot flashes, serum bone turnover markers [bone specific alkaline phosphatase (BSAP) and c-terminal telopeptide (CTX)] and IGF-1 levels, an indicator of insulin resistance.
All serum hormone and PSA measurements were performed by a central laboratory utilizing standard techniques. Serum total testosterone concentrations were determined using a validated liquid chromatography-tandem mass spectrometry (LC/MS-MS) method. This is the assay platform that is current utilized for total testosterone by most major laboratories and provides values which are more accurate at the lower levels of testosterone found in women, children, hypogonadal men, and men on ADT. The percent free testosterone was determined by equilibrium dialysis. Free testosterone concentrations were calculated as the product of (total testosterone by LC/MS/MS) and (free fraction by equilibrium dialysis). This combination of approaches is considered to be the gold standard with which to measure free testosterone with excellent accuracy and validity (sensitivity and specificity).
Hot flash assessments were performed utilising a standard instrument to measure the frequency and severity of hot flashes, and data were compiled at baseline, Day 28 and Day 90. The men reported as experiencing hot flashes were those indicating any in the period between the respective time point and the prior patient visit. CTX (pg/ml) assayed by an electrochemiluminescent immunoassay and BSAP (U/L) assayed by immunoenzymatic methodology were measured as indicators of bone turnover. Serum IGF-1 levels were measured by liquid chromatography/mass spectrometry (LC/MS) at the same time each day (within a +/−60 minute window).
Simple descriptive statistics and graphics were used to present the characteristics of the study population. One way Analysis of Variance (PROC GLM with CONTRAST statement) methods were used to compare total testosterone percent change from baseline to Day 28, Day 60 and Day 90. Kaplan Meier survival analysis was used to estimate the proportion of subjects that reached castrate levels by Day 60 in each treatment arm based upon time to total testosterone of ≦50 ng/dL. Fisher Exact tests were used to compare rate of hot flashes at Day 28 and Day 90 among the two Compound IV and the leuprolide arms. One way ANOVA methods were also used to compare CTX and BSAP changes from baseline to Day 120 between treatment groups. The intent-to-treat (ITT) population consisted of all randomized patients who received at least one dose of Compound IV or leuprolide depot. […]

[1] = 1000 mg Compound IV, baseline to Day 120
[2] = preliminary analysis, Compound IV 2000 mg daily (41 assessed) or Lupron Depot (49 assessed)

SMILES: O=C(c1ccc(O)c(F)c1)N(c1ccc(O)cc1)c1ccc(F)cc1 [Compound IV, 3-fluoro-N-(4-fluorophenyl)-4-hydroxy-N-(4-hydroxyphenyl)benzamide]
- Median free testosterone in castrate men (total testosterone ≦50 ng/dL) (1000 mg): 0.4 pg/mL
- Castrated (%) at Day 28 (1000 mg Compound IV (n = 53)): 49%
- Castrated (%) on both Day 28 and Day 60 (1000 mg Compound IV (n = 53)): 30%
- No. Castrated at Day 28 (1000 mg Compound IV (n = 53)): 26
- No. Castrated on both Day 28 and Day 60 (1000 mg Compound IV (n = 53)): 16
- Subjects that achieved castration (total T<50 ng/dL) by Day 60 (1000 mg Compound IV arm): 43.4%
- Bone specific alkaline phosphatase (BSAP) percentage change [1]: −26.3%
- C-terminal telopeptides (CTX) percentage change [1]: −55.3%
- % Reduction on PSA at Day 28 (1000 mg Compound IV): 84%
- Mean Free T at Day 28 (1000 mg Compound IV): 1.0 ± 0.8 pg/mL
- Mean Total T at Day 28 (1000 mg Compound IV): 25 ± 15 ng/dL
- Castration (%) (1000 mg QD, D28): 50%
- Castration (%) (1000 mg QD, D60): 59.4%
- Castration (%) (1000 mg QD, Ever): 61.5%
- Median free testosterone (1000 mg arm): 0.4 pg/mL
- Subjects with a venous thromboembolism event (VTE) (1000 mg dose arm): 9 subjects
- Median increase in SHBG (1000 mg): 495%
- Median free testosterone in castrate men (total testosterone ≦50 ng/dL) (2000 mg): 0.3 pg/mL
- Castrated (%) at Day 28 (2000 mg Compound IV (n = 55)): 56%
- Castrated (%) on both Day 28 and Day 60 (2000 mg Compound IV (n = 55)): 51%
- No. Castrated at Day 28 (2000 mg Compound IV (n = 55)): 31
- No. Castrated on both Day 28 and Day 60 (2000 mg Compound IV (n = 55)): 28
- Subjects that achieved castration (total T<50 ng/dL) by Day 60 (2000 mg Compound IV arm): 63.6%
- Bone specific alkaline phosphatase (BSAP) percentage change (2000 mg Compound IV, baseline to Day 120): −22.6%
- % Reduction on PSA at Day 28 (2000 mg Compound IV): 73%
- Mean Free T at Day 28 (2000 mg Compound IV): 0.7 ± 0.7 pg/mL
- Mean Total T at Day 28 (2000 mg Compound IV): 19 ± 9 ng/dL
- Castration (%) (2000 mg QD, D28): 31%
- Castration (%) (2000 mg QD, D60): 79.6%
- Castration (%) (2000 mg QD, Ever): 84.6%
- Median free testosterone (2000 mg arm): 0.3 pg/mL
- Subjects with a venous thromboembolism event (VTE) (2000 mg dose arm): 2 subjects
- Median increase in SHBG (2000 mg): 583%
- Percentage of treated ADT naïve patients (castrate population) below the Free T cutoff of 0.5 pg/ml (28 days on therapy): 28.3%
- Percentage of treated ADT naïve patients (castrate population) below the Free T cutoff of 0.5 pg/ml (45 days on therapy): 50.9%
- Percentage of treated ADT naïve patients (castrate population) below the Free T cutoff of 0.5 pg/ml (120 days on therapy): 58.1%
- Rate of hot flashes relative to that in the leuprolide treated group (Day 90 visits): ≤ 25%
- PSA level reached on average (Study 2 (FIG. 35)): < 0.2 µg/L
- Change in serum IGF-1 level (Study 2, 1000 mg daily (n = 53), Day 1 to Day 28): -75.2 ± 25.6 ng/mL
- Change in serum IGF-1 level (Study 2, 1000 mg daily (n = 53), Day 1 to Day 60): -73.7 ± 29.2 ng/mL
- Change in serum IGF-1 level (Study 2, 1000 mg daily (n = 53), Day 1 to Day 90): -73.1 ± 25.1 ng/mL
- Change in serum IGF-1 level (Study 2, 1000 mg daily (n = 53), Day 1 to Day 360): -35.2 ± 40.5 ng/mL
- Change in serum IGF-1 level (Study 2, 2000 mg daily (n = 55), Day 1 to Day 28): -78.6 ± 38.3 ng/mL
- Change in serum IGF-1 level (Study 2, 2000 mg daily (n = 55), Day 1 to Day 60): -77.7 ± 39.9 ng/mL
- Change in serum IGF-1 level (Study 2, 2000 mg daily (n = 55), Day 1 to Day 90): -72.7 ± 24.9 ng/mL
- Change in serum IGF-1 level (Study 2, 2000 mg daily (n = 55), Day 1 to Day 360): -33.4 ± 45.2 ng/mL
- Mean SHBG for PSA responders (>50% reduction) (Study 2, all patients (FIG. 37)): 399%+85
- Reduction in reported hot flashes (day 90): greater than 4 fold
- Increase in SHBG levels in men that responded (in vivo): 200-600%
- Number of Subjects that Experienced a Hot Flash [2]: 2
- Percent of Subjects that Experienced a Hot Flash [2]: 5%
- Induction of baseline SHBG (treatment naive patients (Study 2 and Study 5), after 28 days): 150-700%
- Patients with at least a 50% reduction in % FreeT (treatment naïve patients (Studies 2 and 5), after 7 days of therapy): 81%
- Patients with both at least a 50% reduction in % FreeT and a 50% reduction in PSA from baseline (treatment naïve patients (Studies 2 and 5), after a month): 80%
- Molar ratio of SHBG to Total T relative to leuprolide acetate treated patients (treatment naïve patients, after 28 days): 3-7 fold
- Drop in % FreeT (treatment naïve patients, day 28): 70%
